Assay [1] concerns the target T1, N336S mutant A. niger monoamine oxidase (Aspergillus niger, UniProt P46882, A300V/K348M/L304V/N336S/R450G).
T1 construct: made in house; host or cells: E. coli BL21(DE3), pET16b
In kind it is biochemical. Details: key to Relative Rate (symbol): *: No measurable rate. Particulars: for Relative Rate: relative to (S)-α Methylbenzylamine = 1. As for the experimental part:
(§1) 5 ml phosphate buffer (1 M, pH 7.6)
(§2) 500 μl 2,4,6-tribromo-3-hydroxybenzoic acid (2% in DMSO)
(§3) 37.5 μl 4-aminoantipyrine (1.5 M) • 30 μl amine substrate (final concentration 0.015-5 mM) • 44.4 ml water
(§4) Assay Conditions: • 990 μl assay mixture • 5 μl horse radish peroxidase (1 mg·ml^−1) • 10 μl enzyme
(§5) The spectrophotometer was blanked against assay mixture and HRP. Enzyme was added and the absorbance at 500 nm measured at 3 s intervals for a 10 minute period.
The activity of the mutant enzyme described above was studied in relation to a variety of amine substrates. […]

Assay [2] deals with Type II monoamine oxidase from Aspergillus niger (MAO-N) (Aspergillus niger, UniProt P46882, A300V/K348M/L304V/R450G). Particulars: literature refs 10-12; cited from earlier work.
For assay [3], the target named is T2, wild-type A. niger MAO-N enzyme (Aspergillus niger, UniProt P46882, A300V/K348M/L304V/R450G).
T2 construct: made in house; host or cells: E. coli BL21(DE3), pET16b
The assay can be described thus: Colorimetric hydrogen peroxide (HRP/TBHBA/4-aminoantipyrine) amine oxidase assay, purified wild-type enzyme. It counts as biochemical. Particulars: for kcat, Wild-type Enzyme: purified wild-type enzyme, active enzyme from FAD absorbance at 458 nm. How it is done:
(§6) The wild-type enzyme was also purified by the same protocol and the two enzymes compared for substrate specificity and enantioselectivity.
as §1, §2, §3, §4, §5
(§7) The Km values were calculated using ‘KaleidaGraph for Windows’ (Synergy Software). For calculation of the kcat, the active enzyme concentration was determined by estimating the FAD content from the absorbance at 458 nm using an extinction coefficient of 11 mM^−1 cm^−1 (see ref 12).

The target of assay [4] is T3, mutant A. niger monoamine oxidase (N336S) (Aspergillus niger, UniProt P46882, A300V/K348M/L304V/N336S/R450G).
T3 construct: made in house; host or cells: E. coli BL21(DE3), pET16b
Description: Colorimetric hydrogen peroxide amine oxidase assay, purified mutant enzyme (N336S). It counts as biochemical. How it is done:
as §6
The mutated gene was also sequenced and the sequence is shown in SEQ ID NO: 2. There was a single amino acid change from the wild-type enzyme with serine replacing asparagine at position 336.
LB medium (6×300 ml) containing ampicillin (100 μg·ml^−1) in 1 L baffled flasks was inoculated with a single colony of monoamine oxidase mutant from an LB agar plate. Cultures were incubated at 30° C. for 22 hours (OD600˜3.6) then harvested and washed with phosphate buffer (50 mM, pH 8) to yield a yellow-brown pellet (11.2 g).
The pellet was resuspended in Tris/HCl buffer (25 mM, pH 7.8, 30 ml) and sonicated on ice (30 s on, 30 s off for 10 minutes). The suspension was then centrifuged (20,000 rpm, 4° C.) until clear supernatant was obtained and the supernatant dialysed against Tris/HCl buffer (25 mM, pH 7.8). The cell free extract was filtered through 0.45 μm sterile membrane and chromatographed on a QSepharose anion exchange column. Fractions were assayed using colorimetric hydrogen peroxide based assay and active fractions were stored at −80° C. The active fraction has a protein content of 1 mg·ml^−1, and a specific activity of 0.193 U·mg^−1 against amylamine.
as §1, §2, §3, §4, §5, §7

Assay [5] concerns the target T4, mutant amine oxidase (N336S) (Aspergillus niger, UniProt P46882, A300V/K348M/L304V/N336S/R450G).
T4 construct: made in house; host or cells: E. coli BL21(DE3), pET16b
The assay can be described thus: Chiral HPLC (Chiralcel CrownPak CR+) check of oxidation by the mutant. In kind it is biochemical. The conditions noted are these: after 24 h. How it is done: The data reveal that the activity of the mutant amine oxidase towards L-AMBA (kcat=8.0 min-1) is 47 fold higher than the wild-type (kcat=0.17 min-1). Moreover the selectivity of the mutant for the L-enantiomer versus D-AMBA (ca. 100:1) has also been increased relative to the wild type enzyme (ca. 17:1). Thus the outcome of the in vitro evolution experiments has been to simultaneously improve both the enantioselectivity and catalytic activity of the enzyme. For comparison, the activity towards the best substrate for the wild-type enzyme, namely amylamine, and also benzylamine, is presented.

In assay [6] the target is T5, MAO mutant N336S (Aspergillus niger, UniProt P46882, A300V/K348M/L304V/N336S/R450G).
T5 construct: made in house; host or cells: E. coli BL21(DE3), pET16b
The assay can be described thus: Stereoinversion reaction with MAO mutant N336S and ammonia-borane, HPLC monitoring. In kind it is biochemical. Particulars: ammonia-borane, 30° C., 24 hours. How it is done: More Specifically, MAO mutant N336S (100 μl of 0.193 U·ml^−1=0.02 U) was added to a solution of L-AMBA (0.13 μl, final concentration=0.4 mM) and ammonia-borane complex (10 μl of 4M solution, final concentration=80 mM, 200 eq) in phosphate buffer (400 μl, 20 mM, pH8). A 10 μl aliquot was diluted in 990 μl perchloric acid, pH 1.5 and analysed by HPLC. The reaction mixture was incubated at 30° C. and the reaction monitored by HPLC at regular intervals until no further reaction was observed.
Analytical conditions: Column=Chiralcel CrownPak CR+ • Mobile phase=100% perchloric acid, pH 1.5 • Flow rate=0.8 ml·min^−1 • Detection=200 nm • Temperature=25° C. • r.t. (L-AMBA)=12.8 min • r.t. (D-AMBA)=16.5 min

“Also recorded” adds a separate entry of the source. Read-outs that look alike come from different tables or passages of the source.

T2 sequence (P46882 whole entry A300V/L304V/K348M/R450G): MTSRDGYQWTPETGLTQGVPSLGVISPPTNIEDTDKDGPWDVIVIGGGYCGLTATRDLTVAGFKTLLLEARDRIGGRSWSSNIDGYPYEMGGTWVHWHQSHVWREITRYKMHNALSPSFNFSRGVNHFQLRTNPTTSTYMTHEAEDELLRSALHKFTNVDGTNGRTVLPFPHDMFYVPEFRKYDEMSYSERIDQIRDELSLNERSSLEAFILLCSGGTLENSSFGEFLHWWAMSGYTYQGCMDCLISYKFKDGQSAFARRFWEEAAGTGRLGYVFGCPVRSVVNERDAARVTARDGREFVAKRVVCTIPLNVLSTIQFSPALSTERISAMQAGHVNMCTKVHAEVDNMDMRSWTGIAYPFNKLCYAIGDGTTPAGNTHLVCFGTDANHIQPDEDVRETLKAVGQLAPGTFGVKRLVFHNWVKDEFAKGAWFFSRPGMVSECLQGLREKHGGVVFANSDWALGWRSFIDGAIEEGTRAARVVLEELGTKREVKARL
Type II monoamine oxidase from Aspergillus niger (MAO-N), sequence (P46882 whole entry A300V/L304V/K348M/R450G): as above
T1 sequence (P46882 whole entry A300V/L304V/N336S/K348M/R450G): as the sequence (P46882 whole entry A300V/L304V/K348M/R450G) above, with N336S counted along it
T3 sequence (P46882 whole entry A300V/L304V/N336S/K348M/R450G): as the sequence (P46882 whole entry A300V/L304V/K348M/R450G) above, with N336S counted along it
T4 sequence (P46882 whole entry A300V/L304V/N336S/K348M/R450G): as the sequence (P46882 whole entry A300V/L304V/K348M/R450G) above, with N336S counted along it
T5 sequence (P46882 whole entry A300V/L304V/N336S/K348M/R450G): as the sequence (P46882 whole entry A300V/L304V/K348M/R450G) above, with N336S counted along it

Regarding `CC(N)c1ccccc1` (racemic) [(rac)-α Methylbenzylamine], the “Relative Rate (symbol)” value in assay [1] is recorded as “*”. Turning to `CCCCCN` [amylamine], the “reported activity of MAO-N” value in assay [2] is “high activity”. Besides, the “Relative Rate” value in assay [1] is reported as 25.2. Also, the “kcat, Wild-type Enzyme” value in assay [3] was determined as 16.67 s⁻¹. For the molecule `CC(C)[C@H](C)N` [(S)-3-Methyl-2-butylamine], the “Relative Rate” value in assay [1] stood at 5.4. As to `C[C@@H](N)c1ccc(Br)cc1` [(R)-4-Bromo-α-phenylethylamine], the “Relative Rate (symbol)” value in assay [1] was “*”. As to `Cc1ccc([C@H](C)N)cc1`, the “Relative Rate” value in assay [1] worked out at 0.28. As to `CC(C)[C@@H](C)N` [(R)-3-Methyl-2-butylamine], in assay [1], the “Relative Rate (symbol)” value is reported as “*”.

As to `CC(C)CC(C)N` (stereo not drawn) [1,3-Dimethylbutylamine], the “Relative Rate” value in assay [1] is on record as 1.8.

With `CCCCCCCN` [N-heptylamine], in assay [1], the “Relative Rate” value was 12.1. Regarding `C[C@@H](N)C(C)(C)C` [(R)-3-3-Dimethyl-2-butylamine], the “Relative Rate (symbol)” value in assay [1] is on record as “*”. For `C[C@H](N)c1ccc([N+](=O)[O-])cc1` [(S)-α-Methyl-4-nitrobenzylamine], the “Relative Rate” value in assay [1] came out at 0.91.

Regarding `CC(N)c1ccc(Br)cc1` (racemic) [(rac)-4-Bromo-α-phenylethylamine], the “Relative Rate (symbol)” value in assay [1] is recorded as “*”. In the case of `CCCCN` [butylamine], the “reported activity of MAO-N” value in assay [2] is “high activity”. A word on the Km: it is the concentration of substrate that gives half-maximal velocity. As for `CC(N)c1ccccc1` [L-AMBA, L-α-methylbenzylamine], the “activity (kcat) of the mutant relative to the wild-type” value in assay [4] (mutant kcat versus wild-type kcat) is listed as 47 fold. Besides, in assay [4] (purified N336S mutant), the Km is 400 µM and the “kcat, Mutant Enzyme” value stood at 0.133 s⁻¹. Moreover, in assay [1], the “Relative Rate” value was found to be 1. In assay [3], the “activity of the wild-type A. niger MAO-N enzyme” value is “very low, but measurable activity” and the “kcat, Wild-type Enzyme” value amounted to 0.00283 s⁻¹. The “oxidation by the mutant seen by chiral HPLC” value in assay [5] was “complete oxidation”. For the molecule `C[C@@H](N)c1ccc([N+](=O)[O-])cc1` [(R)-α-Methyl-4-nitrobenzylamine], the “Relative Rate” value in assay [1] is on record as 0.06. On the same count and under the same terms, in the case of `COc1ccc([C@@H](C)N)cc1` [(R)-1-4-Methoxyphenylethylamine] it was 0.13; in that of `CC1CCCCC1N` (stereo not drawn) [2-Methylcyclohexylamine], 0.43.

Turning to `CC(N)c1ccccc1` [D-AMBA, α-methylbenzylamine], the “conversion under stereoinversion conditions” value in assay [6] is recorded as “no conversion; also recorded: no reaction was observed”. Also, the “kcat, Mutant Enzyme” value in assay [4] (purified N336S mutant) turned out to be 0.0013 s⁻¹. Further, in assay [1], the “Relative Rate (symbol)” value is listed as “*”. Also, the “activity of the wild-type A. niger MAO-N enzyme” value in assay [3] (listed as D-enantiomer) is given as “even slower oxidation”. For the same molecule, the “kcat, Wild-type Enzyme” value in assay [3] was 0.00017 s⁻¹. Also, the “oxidation by the mutant seen by chiral HPLC” value in assay [5] was “no detectable conversion”. Take `COc1ccc([C@H](C)N)cc1` [(S)-1-4-Methoxyphenylethylamine]: the “Relative Rate” value in assay [1] was determined as 0.81. The same measure, in the same setting: in the case of `CCCCCCN` [Hexylamine] it was 18.6. As to `C[C@H](N)C(C)(C)C` [(S)-3-3-Dimethyl-2-butylamine], in assay [1], the “Relative Rate” value is on record as 1.4. On to `NCc1ccccc1` [benzylamine], for which the “kcat, Mutant Enzyme” value in assay [4] (purified N336S mutant) was found to be 3.27 s⁻¹. Further, the “reported activity of MAO-N” value in assay [2] is “active, albeit at a lower rate”. Moreover, the “kcat, Wild-type Enzyme” value in assay [3] worked out at 6.18 s⁻¹.

As for `C[C@H](N)c1ccc(Br)cc1` [(S)-4-Bromo-α-phenylethylamine], the “Relative Rate” value in assay [1] is given as 0.24. Regarding `Cc1ccc([C@@H](C)N)cc1`, the “Relative Rate (symbol)” value in assay [1] was “*”. Same read-out and setting: the value for `CC(NC(C)c1ccccc1)c1ccccc1` (stereo not drawn) [Bis(α-methyl)benzylamine] was “*”.

The values are drawn from patent US8178324B2, “Deracemisation of amines” (Ingenza Limited, priority 2002, dated 2012).
